The values that follow come from article PMC3809078 (Journal of natural products, 2013).

Molecules are shown by their SMILES.

The subject of one experiment is T47D cells. As to the kind of experiment: Cell proliferation/viability assay. The format is cell-based, human.
For experiment [1], the system named is retinoic acid receptors (RARs). The settings on record: cytotoxic activity attributed to it; cited from earlier work.
The test system of a further experiment is MDA-MB-231 cells. As to the kind of experiment: Cell proliferation/viability assay. The experiment is classed as cell-based, human.

On to `CC1=C(CC/C(C)=C/CC/C(C)=C/CCC2=CC(=O)OC2O)C(C)(C)CCC1` (stereo not shown) [Compound 11, luffariellolide], for which the “effect on cell viability (in words)” value in the experiment with T47D cells and in the experiment with MDA-MB-231 cells was “significant level of cytotoxicity” in each case. Besides, the “action on retinoic acid receptors (in words)” value in experiment [1] is “agonist of retinoic acid receptors”.

Turning to `CC(=O)O[C@H](C/C=C(\C)CC/C=C(\C)CCC1=C(C)CCC(=O)C1(C)C)C1=CC(=O)OC1` [Compound 2, 4-acetoxythorectidaeolide A], the “effect on cell viability (in words)” value in the experiment on T47D cells is “Neither 1, nor 2, or any of the other less active sesterterpenes suppressed”; in the experiment with MDA-MB-231 cells it was “Neither 1, nor 2, or any of the other less active sesterterpenes suppressed”.

For the molecule `CC1=C(CC/C(C)=C/CC/C(C)=C/C[C@@H](O)C2=CC(=O)OC2)C(C)(C)C(=O)CC1` [Compound 1, thorectidaeolide A], the “effect on cell viability (in words)” value in the experiment with T47D cells is recorded as “Neither 1, nor 2, or any of the other less active sesterterpenes suppressed”; in the experiment on MDA-MB-231 cells it was “Neither 1, nor 2, or any of the other less active sesterterpenes suppressed”.
